In ChEMBL document CHEMBL1177736, “Isopropylidene substitution increases activity and selectivity of biphenylmethylene 4-pyridine type CYP17 inhibitors” (J Med Chem, 2010):

How the values were obtained:
[1] = target: T1, Steroid 17-alpha-hydroxylase/17,20 lyase (Homo sapiens, UniProt P05093); assay: Inhibition of human CYP17 expressed in Escherichia coli coexpressing NADPH-P450 reductase
T1 sequence (P05093 whole entry): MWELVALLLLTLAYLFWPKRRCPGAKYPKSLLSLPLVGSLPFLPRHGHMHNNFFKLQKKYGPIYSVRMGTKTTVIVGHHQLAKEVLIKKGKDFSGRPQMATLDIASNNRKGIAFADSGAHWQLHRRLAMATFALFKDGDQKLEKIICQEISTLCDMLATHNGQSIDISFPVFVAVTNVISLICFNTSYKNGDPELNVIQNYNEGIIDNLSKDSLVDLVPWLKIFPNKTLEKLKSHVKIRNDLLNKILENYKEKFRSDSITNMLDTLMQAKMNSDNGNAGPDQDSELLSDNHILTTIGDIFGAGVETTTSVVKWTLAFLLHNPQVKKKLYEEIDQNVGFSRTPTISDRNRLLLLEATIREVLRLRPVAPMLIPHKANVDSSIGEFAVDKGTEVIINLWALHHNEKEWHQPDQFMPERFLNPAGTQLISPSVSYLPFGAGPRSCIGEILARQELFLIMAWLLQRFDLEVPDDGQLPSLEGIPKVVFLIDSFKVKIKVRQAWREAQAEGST

[2] = target: T2, Cytochrome P450 11B1, mitochondrial (Homo sapiens, UniProt P15538); assay: Inhibition of human CYP11B1 expressed in hamster V79MZh cells; format: cell-based
T2 sequence (P15538 whole entry): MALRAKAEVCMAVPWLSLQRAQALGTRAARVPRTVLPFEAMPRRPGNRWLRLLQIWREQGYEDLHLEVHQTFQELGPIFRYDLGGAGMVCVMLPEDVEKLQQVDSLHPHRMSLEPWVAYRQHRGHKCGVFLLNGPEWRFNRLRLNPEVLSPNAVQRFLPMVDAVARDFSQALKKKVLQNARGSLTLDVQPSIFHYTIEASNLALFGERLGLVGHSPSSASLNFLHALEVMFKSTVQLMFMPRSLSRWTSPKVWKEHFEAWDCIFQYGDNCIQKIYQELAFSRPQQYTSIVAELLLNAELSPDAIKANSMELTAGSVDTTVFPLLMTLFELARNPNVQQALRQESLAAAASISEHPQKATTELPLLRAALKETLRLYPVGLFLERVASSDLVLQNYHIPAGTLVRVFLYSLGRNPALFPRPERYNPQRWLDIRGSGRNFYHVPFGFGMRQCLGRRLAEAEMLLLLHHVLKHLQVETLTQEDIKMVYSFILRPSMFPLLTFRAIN

[3] = target: T3, Cytochrome P450 11B2, mitochondrial (Homo sapiens, UniProt P19099); assay: Inhibition of human CYP11B2 expressed in hamster V79MZh cells; format: cell-based
T3 sequence (P19099 whole entry): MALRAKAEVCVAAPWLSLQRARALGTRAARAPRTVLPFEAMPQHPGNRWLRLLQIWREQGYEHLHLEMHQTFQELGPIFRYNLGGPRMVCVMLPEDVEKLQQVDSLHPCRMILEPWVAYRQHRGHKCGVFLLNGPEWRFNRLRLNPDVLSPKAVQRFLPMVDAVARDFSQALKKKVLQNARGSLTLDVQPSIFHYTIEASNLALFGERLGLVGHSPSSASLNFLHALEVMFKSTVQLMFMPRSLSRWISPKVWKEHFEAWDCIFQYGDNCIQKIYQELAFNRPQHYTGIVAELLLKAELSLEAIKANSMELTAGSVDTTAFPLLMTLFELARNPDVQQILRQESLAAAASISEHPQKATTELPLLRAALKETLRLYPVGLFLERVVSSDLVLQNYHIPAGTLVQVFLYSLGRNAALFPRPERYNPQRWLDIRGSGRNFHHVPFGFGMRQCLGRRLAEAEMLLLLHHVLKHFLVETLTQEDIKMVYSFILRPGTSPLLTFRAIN

[4] = target: T4, Aromatase (Homo sapiens, UniProt P11511); assay: Inhibition of CYP19 in human placental microsomes; design: species or system Placenta
T4 sequence (P11511 whole entry): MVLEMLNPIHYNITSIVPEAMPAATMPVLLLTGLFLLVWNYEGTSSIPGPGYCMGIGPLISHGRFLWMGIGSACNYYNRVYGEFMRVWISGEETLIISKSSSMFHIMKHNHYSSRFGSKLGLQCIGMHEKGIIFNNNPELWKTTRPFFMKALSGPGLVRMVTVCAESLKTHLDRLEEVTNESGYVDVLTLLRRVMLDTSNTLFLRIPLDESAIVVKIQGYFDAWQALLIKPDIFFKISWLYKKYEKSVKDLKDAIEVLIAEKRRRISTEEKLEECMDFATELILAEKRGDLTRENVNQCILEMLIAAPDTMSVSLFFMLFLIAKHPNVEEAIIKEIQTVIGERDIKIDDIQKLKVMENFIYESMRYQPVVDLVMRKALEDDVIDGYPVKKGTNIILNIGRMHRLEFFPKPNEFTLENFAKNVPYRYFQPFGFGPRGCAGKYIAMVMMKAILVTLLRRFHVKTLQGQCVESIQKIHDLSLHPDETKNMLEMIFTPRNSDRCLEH

[5] = target: Cytochrome P450 3A4 (Homo sapiens, UniProt P08684); assay: Inhibition of CYP3A4 expressed in baculovirus infected insect microsomes; design: species or system Microsome
Sequence of Cytochrome P450 3A4 (P08684 whole entry): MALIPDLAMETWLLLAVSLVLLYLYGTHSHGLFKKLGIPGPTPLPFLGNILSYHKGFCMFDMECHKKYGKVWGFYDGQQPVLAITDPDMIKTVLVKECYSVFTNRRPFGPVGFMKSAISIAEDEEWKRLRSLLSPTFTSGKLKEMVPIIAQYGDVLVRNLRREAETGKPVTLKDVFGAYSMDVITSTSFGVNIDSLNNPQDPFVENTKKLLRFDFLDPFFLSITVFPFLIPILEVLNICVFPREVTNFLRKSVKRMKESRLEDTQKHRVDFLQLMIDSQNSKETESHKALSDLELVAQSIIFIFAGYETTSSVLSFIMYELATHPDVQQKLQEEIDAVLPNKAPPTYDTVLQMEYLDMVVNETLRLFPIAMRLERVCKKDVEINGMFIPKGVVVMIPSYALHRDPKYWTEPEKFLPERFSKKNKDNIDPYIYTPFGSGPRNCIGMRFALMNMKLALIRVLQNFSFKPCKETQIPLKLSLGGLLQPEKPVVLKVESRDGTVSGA

| IC50 [1] [nM] | IC50 [2] [nM] | IC50 [3] [nM] | IC50 [4] [nM] | IC50 [5] [nM] | Structure (SMILES) |
| --- | --- | --- | --- | --- | --- |
| 226 | 287 | 921 | 2830 | – | Nc1cccc(-c2ccc(Cc3ccncc3)cc2)c1 |
| 52 | 1400 | 948 | 2440 | 7580 | Oc1ccc(-c2ccc(Cc3ccncc3)cc2)cc1O |
| 62 | 5060 | 49500 | 48700 | – | CC(C)=C(c1ccncc1)c1ccc(-c2ccc3cc(O)ccc3c2)cc1 |
| – | 342 | 261 | 663 | 538 | Oc1cccc(-c2ccc(Cc3ccncc3)cc2)c1 |
| 186 | 351 | 110 | 1670 | 896 | Oc1ccc(-c2ccc(Cc3ccncc3)cc2)cc1F |
| 38 | 7300 | 3830 | 5060 | 1330 | CC(C)=C(c1ccncc1)c1ccc(-c2cccc(N)c2)cc1 |
| 337 | 502 | 368 | 24600 | – | Nc1ccc(-c2ccc(Cc3ccncc3)cc2)cc1N |
| 75 | 2000 | 1870 | 5750 | 17600 | CC(C)=C(c1ccncc1)c1ccc(-c2ccc(O)c(F)c2)cc1 |
| 852 | – | – | – | – | CC(C)=C(c1ccncc1)c1ccc(-c2ccc(NC(=O)OC(C)(C)C)c(F)c2)cc1 |
| > 10000 | – | – | – | – | CC(C)=C(c1ccncc1)c1ccc(-c2ccc(NC(=O)OC(C)(C)C)c(NC(=O)OC(C)(C)C)c2)cc1 |
| – | 1610 | 1750 | > 50000 | – | C[C@]12CC[C@H](O)CC1=CC[C@@H]1[C@@H]2CC[C@]2(C)C(c3cccnc3)=CC[C@@H]12 [ABIRATERONE] |

Second part, the compound before the results:

| Structure (SMILES) | IC50 [1] [nM] | IC50 [2] [nM] | IC50 [3] [nM] | IC50 [4] [nM] | IC50 [5] [nM] |
| --- | --- | --- | --- | --- | --- |
| CC(C)=C(c1ccncc1)c1ccc(-c2ccc(N)c(N)c2)cc1 | 75 | 7180 | 1130 | 49500 | 1770 |
| CC(C)C(c1ccncc1)c1ccc(-c2cccc(O)c2)cc1 (stereo unspecified) | 783 | – | – | – | – |
| CC(C)=C(c1ccncc1)c1ccc(-c2ccc(O)c(O)c2)cc1 | 37 | 37500 | 974 | 9500 | 464 |
| CCC(c1ccncc1)c1ccc(-c2cccc(O)c2)cc1 (stereo unspecified) | 189 | – | – | – | – |
| CC(C)=C(c1ccncc1)c1ccc(-c2cccc(O)c2)cc1 | 56 | 3100 | 3450 | 12000 | 730 |
| CCC(c1ccncc1)c1ccc(-c2ccc(O)c(F)c2)cc1 (stereo unspecified) | 343 | – | – | – | – |
| CC(C)=C(c1ccncc1)c1ccc(-c2cccc(NC(=O)OC(C)(C)C)c2)cc1 | 1460 | – | – | – | – |
| CC(C)=C(c1ccncc1)c1ccc(-c2ccc(NC(=O)OC(C)(C)C)cc2)cc1 | 493 | – | – | – | – |
